According to US11006626B2, “Compounds for protection of cells” (Sulfateq B.V., priority 2012, dated 2021):
Where two headings read alike, the source gives them in different places.

Tested on: Human Embryo Kidney (HEK) 293 cells
Test: Hypothermia/rewarming injury of HEK cells, trypan blue viability count
Assay type: cell-based
Conditions: for % cells that survived / viability at 0.01 µM / viability at 0.1 µM / viability at 1 µM / viability at 10 µM / viability at 100 µM / viability at 1000 µM: 24 h at 4° C., 24 h rewarming; for % cells that survived, Mean: mean over the tested concentrations; for viability at 0.01 µM / viability at 0.1 µM / viability at 1 µM / viability at 10 µM / viability at 100 µM / viability at 1000 µM: Homo sapiens, read-out: % cells that survived
Method: Human Embryo Kidney (HEK) 293 cells were cultured in DMEM cell culture medium (Life Technologies, 41965-052) supplemented with fetal calf serum, penicillin and streptomycin. Cells were seeded at a density of 0.8-1.2E6 mL-1 in 25 cm2 polystyrene flasks, placed in a 37° C.
The compounds were dissolved in dimethyl sulfoxide (DMSO) to several concentrations. Before commencing experiments, this stock solution was dissolved in pre-warmed DMEM and further diluted to obtain a concentration range from 10 nM-1 mM. Cell culture medium was then replaced by these dilutions and cells were incubated in the presence of the compound for 1 hour. After incubation, lids were closed tightly and flasks were placed in a 4° C. room and cooled for 24 hours. After this cooling period, cells were placed back in the 37° C. incubator with lids closed and were allowed to rewarm for another 24 hours.
After this rewarming period, microscopic images were taken to assess cell morphology (Nikon D5100, Nikon Diaphot-TMD). Cell culture medium was collected and centrifuged (4 minutes, 2000 rpm). The supernatant was collected and pH was immediately measured to prevent equilibration of the pH by the carbonate buffer in the medium, while the pelleted cells were resuspended in 5 mL of PBS. Cells remaining in the flask were washed twice with phosphate buffered saline (PBS) while the washing product was discarded. Subsequently, the cells were trypsinized by addition of 0.5 mL of trypsine and pooled with the resuspended pellet. This cell suspension was then stained at a final concentration of 0.2% trypan blue (Sigma, T8154), followed by manual assessment of viability and cell number on a Bürker-Türk hemocytometer. To conclude the assay, cell culture medium glucose levels were measured (Roche Accutrend Plus) as an indication of metabolic activity. All of these steps were performed with care to prevent mechanical stress to influence or alter the viability of the cells after cooling.
The amount represents the % cells that survived. […] In the control, the same procedure was applied to two badges of HEK cells.

Structure (SMILES) | % cells that survived (10 nM) [%] | % cells that survived (100 nM) [%] | % cells that survived (1 μM) [%] | % cells that survived (10 μM) [%] | % cells that survived (100 μM) [%] | % cells that survived (1 mM) [%] | % cells that survived, Mean [%] | viability at 0.01 µM (HEK293, 24 h, 10 nM) [%] | viability at 0.1 µM (HEK293, 24 h, 100 nM) [%] | viability at 1 µM (HEK293, 24 h, 1 μM) [%] | viability at 10 µM (HEK293, 24 h, 10 μM) [%] | viability at 100 µM (HEK293, 24 h, 100 μM) [%] | viability at 1000 µM (HEK293, 24 h, 1 mM) [%] | viability at 0.01 µM (HEK293, 10 nM) [%] | viability at 0.1 µM (HEK293, 100 nM) [%] | viability at 1 µM (HEK293, 1 μM) [%] | viability at 10 µM (HEK293, 10 μM) [%] | viability at 100 µM (HEK293, 100 μM) [%] | viability at 1000 µM (HEK293, 1 mM) [%]
Cc1c(C)c2c(c(C)c1O)CCC(C)(CN1CCC[C@H]1CO)O2 (stereo partly drawn) [SUL - 134, 2-(((S)-2-(hydroxymethyl)pyrrolidin-1-yl)methyl)-2,5,7,8-tetramethylchroman-6-ol] | 87.43 | 86.34 | 87.74 | 86.58 | 88.82 | 36.51 | 79 |  |  |  |  |  |  |  |  |  |  |  | 
Cc1c(C)c2c(c(C)c1O)CCC(C)(C(=O)N1CCC[C@H]1CO)O2 (stereo partly drawn) [SUL - 112, (6-hydroxy-2,5,7,8-tetramethylchroman-2-yl)((S)-2-(hydroxymethyl)pyrrolidin-1-yl)methanone] |  |  |  |  |  |  | 79 | 96.3 | 96.5 | 95.4 | 93 | 93.1 | 0 |  |  |  |  |  | 
Cc1c(C)c2c(c(C)c1O)CCC(C)(C(=O)NCCBr)O2 (centres unmarked) [SUL - 114, N-(2-bromoethyl)-6-hydroxy-2,5,7,8-tetramethylchroman-2-carboxamide] |  |  |  |  |  |  | 71 |  |  |  |  |  |  | 81.1 | 87.2 | 89.9 | 87.7 | 77.9 | 0
Cc1c(C)c2c(c(C)c1O)CCC(C)(C(=O)N[C@H](CO)c1ccccc1)O2 (stereo partly drawn) [SUL - 98, 6-hydroxy-N-((S)-2-hydroxy-1-phenylethyl)-2,5,7,8-tetramethylchroman-2-carboxamide] |  |  |  |  |  |  | 75 |  | 91 | 97.8 | 97.5 | 88.5 | 1.02 |  |  |  |  |  | 
Cc1c(C)c2c(c(C)c1O)CCC(C)(C(=O)N[C@@H](C(N)=O)c1ccccc1)O2 (stereo partly drawn) [SUL - 111, N-((R)-2-amino-2-oxo-1-phenylethyl)-6-hydroxy-2,5,7,8-tetramethylchroman-2-carboxamide] |  |  |  |  |  |  | 90 | 90.9 | 81.6 | 97.3 | 93.7 | 94.3 | 79.2 |  |  |  |  |  | 
Cc1c2c(c(C(C)C)c(O)c1C(C)C)CCC(C)(C(=O)N1CCNCC1)O2 (centres unmarked) [SUL - 137, (6-hydroxy-5,7-diisopropyl-2,8-dimethylchroman-2-yl)(piperazin-1-yl)methanone] |  |  |  |  |  |  | 71 | 78.2 | 86.1 | 93.9 | 90.9 | 78.7 | 0.53 |  |  |  |  |  | 
Cc1c(C)c2c(c(C)c1O)CCC(C)(CN1CCC[C@H]1CO)O2 (stereo partly drawn) [SUL - 128, 2-(((S)-2-(hydroxymethyl)pyrrolidin-1-yl)methyl)-2,5,7,8-tetramethylchroman-6-ol] | 28.21 |  |  |  |  | 0.00 | 71 |  | 100 | 100 | 100 | 99.4 |  |  |  |  |  |  | 
Cc1c(C)c2c(c(C)c1O)CCC(C)(C(=O)Nc1cccc([N+](=O)[O-])c1)O2 (centres unmarked) [SUL - 104, 6-hydroxy-2,5,7,8-tetramethyl-N-(3-nitrophenyl)chroman-2-carboxamide] |  |  |  |  |  |  | 81 | 99.3 | 99.5 | 97.5 | 98.9 | 40.9 | 52.2 |  |  |  |  |  | 
Cc1c(C)c2c(c(C)c1O)CCC(C)(C(=O)NO)O2 (centres unmarked) [SUL - 90, N,6-dihydroxy-2,5,7,8-tetramethylchroman-2-carboxamide] |  |  |  |  |  |  | 58 |  | 8.67 | 91.3 | 90.2 | 77.9 | 20.4 |  |  |  |  |  | 
Cc1c(C)c2c(c(C)c1O)CCC(C)(C(N)=O)O2 (centres unmarked) [SUL - 89, 6-hydroxy-2,5,7,8-tetramethylchroman-2-carboxamide] |  |  |  |  |  |  | 76 |  | 34.9 | 88.6 | 91.6 | 87.6 |  |  |  |  |  |  | 
COC(=O)C1(C)CCc2c(c(C)c(C(C)C)c(O)c2C(C)C)O1 (centres unmarked) [SUL - 146, methyl 6-hydroxy-5,7-diisopropyl-2,8-dimethylchroman-2-carboxylate] |  |  |  |  |  |  | 46 | 0.96 | 17 | 90.6 | 80.7 | 85.5 | 0 |  |  |  |  |  | 
Cc1c(C)c2c(c(C)c1O)CCC(C)(CN1CCC[C@H]1CO)O2 (stereo partly drawn) [SUL - 135, 2-(((S)-2-(hydroxymethyl)pyrrolidin-1-yl)methyl)-2,5,7,8-tetramethylchroman-6-ol] | 71.94 | 83.90 | 93.82 | 93.85 | 83.46 | 33.06 | 77 |  |  |  |  |  |  |  |  |  |  |  | 
COC(=O)c1ccc(NC(=O)C2(C)CCc3c(C)c(O)c(C)c(C)c3O2)cc1 (centres unmarked) [SUL - 107, methyl 4-(6-hydroxy-2,5,7,8-tetramethylchroman-2-carboxamido)benzoate] |  |  |  |  |  |  | 59 | 4.42 | 95.7 | 92.7 | 94.8 | 37.6 | 28.9 |  |  |  |  |  | 
Cc1c(C)c2c(c(C)c1O)CCC(C)(C(=O)NCCCN1CCCCC1)O2 (centres unmarked) [SUL - 102, 6-hydroxy-2,5,7,8-tetramethyl-N-(3-(piperidin-1-yl)propyl)chroman-2-carboxamide] |  |  |  |  |  |  | 85 | 73.2 | 95.8 | 93.7 | 82 | 73.4 | 93.3 |  |  |  |  |  | 
Cc1c(C)c2c(c(C)c1O)CCC(C)(C(=O)N1CCN(CCOCCO)CC1)O2 (centres unmarked) [SUL - 122, (6-hydroxy-2,5,7,8-tetramethylchroman-2-yl)(4-(2-(2-hydroxyethoxy)ethyl)piperazin-1-yl)methanone] |  |  |  |  |  |  | 57 | 5.15 | 22.5 | 85.6 | 85.2 | 88.5 | 55.6 |  |  |  |  |  | 
Cc1c(C)c2c(c(C)c1O)CCC(C)(C(=O)NCc1ccc(F)cc1)O2 (centres unmarked) [SUL - 97, N-(4-fluorobenzyl)-6-hydroxy-2,5,7,8-tetramethylchroman-2-carboxamide] |  |  |  |  |  |  | 58 |  | 0 | 95.1 | 96.4 | 91.6 | 5.17 |  |  |  |  |  | 
Cc1c(C)c2c(c(C)c1O)CCC(C)(C(=O)NC(C)C)O2 (centres unmarked) [SUL - 92, 6-hydroxy-N-isopropyl-2,5,7,8-tetramethylchroman-2-carboxamide] |  |  |  |  |  |  | 49 |  | 3.13 | 64.6 | 87.1 | 86.5 | 1.55 |  |  |  |  |  | 
CCCCN1CCN(C(=O)C2(C)CCc3c(C)c(O)c(C)c(C)c3O2)CC1 (centres unmarked) [SUL - 108, (4-butylpiperazin-1-yl)(6-hydroxy-2,5,7,8-tetramethylchroman-2-yl)methanone] |  |  |  |  |  |  | 55 | 0 | 40.9 | 94.2 | 96.8 | 96.6 | 0 |  |  |  |  |  | 
CCOC(=O)CN1CCN(C(=O)C2(C)CCc3c(C)c(O)c(C)c(C)c3O2)CC1 (centres unmarked) [SUL - 140, ethyl 2-(4-(6-hydroxy-2,5,7,8-tetramethylchroman-2-carbonyl)piperazin-1-yl)acetate] |  |  |  |  |  |  | 52 | 8.7 | 17.9 | 95.7 | 97 | 94.6 | 0 |  |  |  |  |  | 
Cc1c(C)c2c(c(C)c1O)CCC(C)(CN1CCCCC1)O2 (centres unmarked) [SUL - 130, 2,5,7,8-tetramethyl-2-(piperidin-1-ylmethyl)chroman-6-ol] |  |  |  |  |  |  | 46 | 0 | 12.7 | 85.7 | 89.6 | 86.5 | 1.49 |  |  |  |  |  | 
Cc1c(C)c2c(c(C)c1O)CC[C@](C)(C(=O)O)O2 [SUL - 85, (R)-6-hydroxy-2,5,7,8-tetramethylchroman-2-carboxylic acid] |  |  |  |  |  |  | 33 |  | 1.23 | 0 | 1.43 | 84.9 | 78.3 |  |  |  |  |  | 
